Tests used:
HT29 = test: NCI in vitro cancer screen, Colon Cancer; format: cell-based, human; conditions: HT29
SNB-19 = test: NCI in vitro cancer screen, CNS Cancer; format: cell-based, human; conditions: SNB-19
OVCAR-4 = test: NCI in vitro cancer screen, Ovarian Cancer; format: cell-based, human; conditions: OVCAR-4
UACC-257 = test: NCI in vitro cancer screen, Melanoma; format: cell-based, human; conditions: UACC-257
MOLT-4 = test: NCI in vitro cancer screen, Leukemia; format: cell-based, human; conditions: MOLT-4
KM12 = test: NCI in vitro cancer screen, Colon Cancer; format: cell-based, human; conditions: KM12
IGROV1 = test: NCI in vitro cancer screen, Ovarian Cancer; format: cell-based, human; conditions: IGROV1
NCI-H226 = test: NCI in vitro cancer screen, Non-Small Cell Lung Cancer; format: cell-based, human; conditions: NCI-H226
[1] = tested on: MDA-MB-231 (MDA-MB-231/ATCC); test: NCI in vitro cancer screen, Breast Cancer; format: cell-based, human; conditions: MDA-MB-231
SF-539 = test: NCI in vitro cancer screen, CNS Cancer; format: cell-based; conditions: SF-539
SNB-75 = test: NCI in vitro cancer screen, CNS Cancer; format: cell-based, human; conditions: SNB-75
K-562 = test: NCI in vitro cancer screen, Leukemia; format: cell-based, human; conditions: K-562
U251 = test: NCI in vitro cancer screen, CNS Cancer; format: cell-based, human; conditions: U251
A549/ATCC = test: NCI in vitro cancer screen, Non-Small Cell Lung Cancer; format: cell-based, human
SF-295 = test: NCI in vitro cancer screen, CNS Cancer; format: cell-based, human; conditions: SF-295
HL-60 (TB) = test: NCI in vitro cancer screen, Leukemia; format: cell-based, human; conditions: HL-60 (TB)
NCI-H322M = test: NCI in vitro cancer screen, Non-Small Cell Lung Cancer; format: cell-based, human
MCF7 = test: NCI in vitro cancer screen, Breast Cancer; format: cell-based, human; conditions: MCF7
COLO 205 = test: NCI in vitro cancer screen, Colon Cancer; format: cell-based, human; conditions: COLO 205
SW-620 = test: NCI in vitro cancer screen, Colon Cancer; format: cell-based, human; conditions: SW-620
OVCAR-3 = test: NCI in vitro cancer screen, Ovarian Cancer; format: cell-based, human; conditions: OVCAR-3
UO-31 = test: NCI in vitro cancer screen, Renal Cancer; format: cell-based, human; conditions: UO-31
ADR-RES (NCI/ADR-RES) = test: NCI in vitro cancer screen, Ovarian Cancer; format: cell-based, human
CAKI-1 = test: NCI in vitro cancer screen, Renal Cancer; format: cell-based, human; conditions: CAKI-1
NCI-H522 = test: NCI in vitro cancer screen, Non-Small Cell Lung Cancer; format: cell-based, human; conditions: NCI-H522
HOP-92 = test: as above; format: cell-based, human; conditions: HOP-92
MALME-3M = test: NCI in vitro cancer screen, Melanoma; format: cell-based, human
DU-145 = test: NCI in vitro cancer screen, Prostate Cancer; format: cell-based, human; conditions: DU-145
ACHN = test: NCI in vitro cancer screen, Renal Cancer; format: cell-based, human
HCT-116 = test: NCI in vitro cancer screen, Colon Cancer; format: cell-based, human; conditions: HCT-116
OVCAR-5 = test: NCI in vitro cancer screen, Ovarian Cancer; format: cell-based, human; conditions: OVCAR-5
[2] = Homo sapiens, read-out: LC50 (the source's name)

Compound: COc1cc(/C=C/c2cc(O)cc(OCC=C(C)C)c2)ccc1O [USYDS2, (E)-3-(3-methyl-2-butenyloxy)-4′,5-dihydroxy-3′-methoxystilbene]
- TGI (HT29): 32.2 µM
- GI50 (HT29; Homo sapiens, HT-29): 17.4 µM
- CC50 (HT29; Homo sapiens, HT-29, read-out: LC50 (the source's name)): 59.6 µM
- GI50 (SNB-19; Homo sapiens): 5.02 µM
- CC50 (SNB-19; [2]): 53.6 µM
- TGI (SNB-19): 20.4 µM
- GI50 (OVCAR-4; Homo sapiens): 5.34 µM
- CC50 (OVCAR-4; [2]): > 100 µM
- TGI (OVCAR-4): 28.0 µM
- GI50 (UACC-257; Homo sapiens): 7.89 µM
- CC50 (UACC-257; [2]): 46 µM
- TGI (UACC-257): 20.6 µM
- GI50 (MOLT-4; Homo sapiens): 4.16 µM
- CC50 (MOLT-4; [2]): > 100 µM
- TGI (MOLT-4): 28.3 µM
- GI50 (KM12; Homo sapiens): 2.09 µM
- CC50 (KM12; [2]): 45 µM
- TGI (KM12): 11.7 µM
- GI50 (IGROV1; Homo sapiens, IGROV-1): 5.84 µM
- CC50 (IGROV1; Homo sapiens, IGROV-1, read-out: LC50 (the source's name)): > 100 µM
- TGI (IGROV1): 46.7 µM
- GI50 (NCI-H226; Homo sapiens): 5.43 µM
- LC50 (50% lethal concentration) (NCI-H226; Homo sapiens): 46.4 µM
- TGI (NCI-H226): 19.1 µM
- GI50 ([1]; Homo sapiens): 0.25 µM
- CC50 [1, 2]: 15.7 µM
- TGI [1]: 2.10 µM
- GI50 (SF-539; Homo sapiens): 1.92 µM
- CC50 (SF-539; [2]): 50.2 µM
- TGI (SF-539): 13.8 µM
- GI50 (SNB-75; Homo sapiens): 2.14 µM
- CC50 (SNB-75; [2]): 55.8 µM
- TGI (SNB-75): 10.3 µM
- GI50 (K-562; Homo sapiens, K562): 0.48 µM
- CC50 (K-562; Homo sapiens, K562, read-out: LC50 (the source's name)): > 100 µM
- TGI (K-562): >100 µM
- GI50 (U251; Homo sapiens, U-251): 2.96 µM
- CC50 (U251; Homo sapiens, U-251, read-out: LC50 (the source's name)): 41 µM
- TGI (U251): 14.7 µM
- TGI (A549/ATCC): 13.0 µM
- GI50 (A549/ATCC; Homo sapiens): 3.28 µM
- CC50 (A549/ATCC; [2]): 42.1 µM
- GI50 (SF-295; Homo sapiens): 3.94 µM
- CC50 (SF-295; [2]): 49.2 µM
- TGI (SF-295): 14.7 µM
- TGI (HL-60 (TB)): 9.77 µM
- GI50 (HL-60 (TB); Homo sapiens): 1.34 µM
- CC50 (HL-60 (TB); [2]): > 100 µM
- TGI (NCI-H322M): 22.7 µM
- GI50 (NCI-H322M; Homo sapiens): 9.64 µM
- LC50 (50% lethal concentration) (NCI-H322M; Homo sapiens): 52.3 µM
- GI50 (MCF7; Homo sapiens): 1.24 µM
- CC50 (MCF7; [2]): 41 µM
- TGI (MCF7): 15.0 µM
- TGI (COLO 205): 31.7 µM
- GI50 (COLO 205; Homo sapiens): 17.3 µM
- CC50 (COLO 205; [2]): 57.9 µM
- GI50 (SW-620; Homo sapiens): 0.53 µM
- CC50 (SW-620; [2]): 40.7 µM
- TGI (SW-620): 14.0 µM
- GI50 (OVCAR-3; Homo sapiens): 3.02 µM
- CC50 (OVCAR-3; [2]): 36.1 µM
- TGI (OVCAR-3): 10.7 µM
- GI50 (UO-31; Homo sapiens): 2.6 µM
- CC50 (UO-31; [2]): 48.9 µM
- TGI (UO-31): 16.9 µM
- TGI (ADR-RES (NCI/ADR-RES); ADR-RES): 4.95 µM
- GI50 (ADR-RES (NCI/ADR-RES); Homo sapiens, NCI/ADR-RES): 0.4 µM
- CC50 (ADR-RES (NCI/ADR-RES); Homo sapiens, NCI/ADR-RES, read-out: LC50 (the source's name)): > 100 µM
- TGI (CAKI-1): >100 µM
- GI50 (CAKI-1; Homo sapiens): 6.13 µM
- CC50 (CAKI-1; [2]): > 100 µM
- GI50 (NCI-H522; Homo sapiens): 1.14 µM
- CC50 (NCI-H522; [2]): 14.7 µM
- TGI (NCI-H522): 3.57 µM
- TGI (HOP-92): 21.1 µM
- GI50 (HOP-92; Homo sapiens): 3.98 µM
- CC50 (HOP-92; [2]): 60.1 µM
- GI50 (MALME-3M; Homo sapiens, Malme-3M): 1.88 µM
- CC50 (MALME-3M; Homo sapiens, Malme-3M, read-out: LC50 (the source's name)): 94.9 µM
- TGI (MALME-3M; MALME-3M): 26.2 µM
- TGI (DU-145): 12.5 µM
- GI50 (DU-145; Homo sapiens): 3.05 µM
- CC50 (DU-145; [2]): 37.8 µM
- TGI (ACHN): 17.5 µM
- GI50 (ACHN; Homo sapiens): 3.76 µM
- CC50 (ACHN; [2]): 52.1 µM
- TGI (HCT-116): 11.9 µM
- GI50 (HCT-116; Homo sapiens): 2.09 µM
- LC50 (concentration killing 50% of cells) (HCT-116; Homo sapiens): 40 µM
- GI50 (OVCAR-5; Homo sapiens): 10.1 µM
- CC50 (OVCAR-5; [2]): 60.9 µM
- TGI (OVCAR-5): 24.8 µM
